Assay results: paper PMC5218480 (PLoS ONE, 2017)

Tested on: MV-4-11 cells
Assay: Gene expression microarray analysis (Affymetrix PrimeView) and GSEA
Format: cell-based, human
Parameters: RFU PODN (11730768_x_at) / Fold change /veh PODN (11730768_x_at) / RFU LINC00158 (11744669_a_at) / Fold change /veh LINC00158 (11744669_a_at) / RFU DUSP10 (11751237_a_at) / Fold change /veh DUSP10 (11751237_a_at) / RFU ID3 (11757404_x_at) / Fold change /veh ID3 (11757404_x_at) / RFU PLEKHG5 (11737974_s_at) / Fold change /veh PLEKHG5 (11737974_s_at) / RFU LRRC4B (11730491_at) / Fold change /veh LRRC4B (11730491_at) / RFU GIMAP4 (11747438_a_at) / Fold change /veh GIMAP4 (11747438_a_at) / RFU KRT8 (11758183_x_at) / Fold change /veh KRT8 (11758183_x_at) / RFU CNN1 (11734310_a_at) / Fold change /veh CNN1 (11734310_a_at) / RFU VPS37D (11726825_at) / Fold change /veh VPS37D (11726825_at) / RFU C10orf10 (11716522_x_at) / Fold change /veh C10orf10 (11716522_x_at) / RFU KIR2DL2 /// KIR2DL4 /// KIR2DL5A /// KIR2DL5B /// KIR2DS1 /// KIR2DS2 /// KIR2DS3 /// KIR2DS4 /// KIR3DL3 /// KIR3DL3 /// KIR3DS1 (11738374_at) / Fold change /veh KIR2DL2 /// KIR2DL4 /// KIR2DL5A /// KIR2DL5B /// KIR2DS1 /// KIR2DS2 /// KIR2DS3 /// KIR2DS4 /// KIR3DL3 /// KIR3DL3 /// KIR3DS1 (11738374_at) / RFU C1QL1 (11718748_at) / Fold change /veh C1QL1 (11718748_at) / RFU TMPRSS4 (11747572_a_at) / Fold change /veh TMPRSS4 (11747572_a_at) / RFU HAMP (11756126_x_at) / Fold change /veh HAMP (11756126_x_at) / RFU RNFT2 (11725882_a_at) / Fold change /veh RNFT2 (11725882_a_at) / RFU NR4A2 (11747474_a_at) / Fold change /veh NR4A2 (11747474_a_at) / RFU ABCC12 (11746883_a_at) / Fold change /veh ABCC12 (11746883_a_at) / RFU TMEM136 (11760407_x_at) / Fold change /veh TMEM136 (11760407_x_at) / RFU CLDN22 /// WWC2 (11732394_at) / Fold change /veh CLDN22 /// WWC2 (11732394_at) / RFU HLA-DPB1 (11760878_x_at) / Fold change /veh HLA-DPB1 (11760878_x_at) / RFU SPINT1 (11716480_a_at) / Fold change /veh SPINT1 (11716480_a_at) / RFU GAP43 (11754022_s_at) / Fold change /veh GAP43 (11754022_s_at) / RFU A4GNT (11735810_at) / Fold change /veh A4GNT (11735810_at) / RFU PRB3 (11715151_x_at) / Fold change /veh PRB3 (11715151_x_at) / RFU TUBB4B (11761932_at) / Fold change /veh TUBB4B (11761932_at) / RFU CAPN14 (11732068_a_at) / Fold change /veh CAPN14 (11732068_a_at) / RFU TMCC2 (11721928_a_at) / Fold change /veh TMCC2 (11721928_a_at) / RFU IRGQ (11745062_a_at) / Fold change /veh IRGQ (11745062_a_at) / RFU FAM174B (11720279_a_at) / Fold change /veh FAM174B (11720279_a_at) / RFU TMPRSS4 (11748680_a_at) / Fold change /veh TMPRSS4 (11748680_a_at) / RFU FAM212B (11763350_a_at) / Fold change /veh FAM212B (11763350_a_at) / RFU PLEKHG5 (11743358_a_at) / Fold change /veh PLEKHG5 (11743358_a_at) / RFU ZSCAN30 (11745921_a_at) / Fold change /veh ZSCAN30 (11745921_a_at) / RFU CMKLR1 (11741424_a_at) / Fold change /veh CMKLR1 (11741424_a_at) / RFU LOC101060620 /// MAPK8IP1 (11723275_at) / Fold change /veh LOC101060620 /// MAPK8IP1 (11723275_at) / RFU SPTSSB (11747773_x_at) / Fold change /veh SPTSSB (11747773_x_at) / RFU PRSS12 (11739890_at) / Fold change /veh PRSS12 (11739890_at) / RFU BIN1 (11741810_x_at) / Fold change /veh BIN1 (11741810_x_at) / RFU WNT11 (11732464_a_at) / Fold change /veh WNT11 (11732464_a_at) / RFU C10orf10 (11716521_a_at) / Fold change /veh C10orf10 (11716521_a_at) / RFU C5orf56 (11738089_at) / Fold change /veh C5orf56 (11738089_at) / RFU CYB561 (11721691_x_at) / Fold change /veh CYB561 (11721691_x_at) / RFU ANKRD19P (11752326_a_at) / Fold change /veh ANKRD19P (11752326_a_at) / RFU OR2T12 /// OR2T33 /// OR2T8 (11738714_s_at) / Fold change /veh OR2T12 /// OR2T33 /// OR2T8 (11738714_s_at) / RFU VCAN (11748164_a_at) / Fold change /veh VCAN (11748164_a_at) / RFU JSRP1 (11732532_at) / Fold change /veh JSRP1 (11732532_at) / RFU KRTAP10-11 (11738290_x_at) / Fold change /veh KRTAP10-11 (11738290_x_at) / RFU MYO3A (11730013_a_at) / Fold change /veh MYO3A (11730013_a_at) / RFU EBF3 (11725865_a_at) / Fold change /veh EBF3 (11725865_a_at) / RFU CAMK2N1 (11719241_x_at) / Fold change /veh CAMK2N1 (11719241_x_at) / RFU C5orf56 (11738088_a_at) / Fold change /veh C5orf56 (11738088_a_at) / RFU OLFML3 (11715873_a_at) / Fold change /veh OLFML3 (11715873_a_at) / RFU LOC100653217 /// NTM (11731650_a_at) / Fold change /veh LOC100653217 /// NTM (11731650_a_at) / RFU MAPK11 (11762145_a_at) / Fold change /veh MAPK11 (11762145_a_at) / RFU FIZ1 (11724087_x_at) / Fold change /veh FIZ1 (11724087_x_at) / RFU OASL (11726364_x_at) / Fold change /veh OASL (11726364_x_at) / RFU SOX15 (11748057_x_at) / Fold change /veh SOX15 (11748057_x_at) / RFU CD79A (11719716_a_at) / Fold change /veh CD79A (11719716_a_at) / RFU HIST1H1D (11736915_at) / Fold change /veh HIST1H1D (11736915_at) / RFU CASKIN2 (11723855_a_at) / Fold change /veh CASKIN2 (11723855_a_at) / RFU LOC730098 (11760151_x_at) / Fold change /veh LOC730098 (11760151_x_at) / RFU OR4N2 (11742367_at) / Fold change /veh OR4N2 (11742367_at) / RFU PRRT2 (11749266_a_at) / Fold change /veh PRRT2 (11749266_a_at) / RFU SNX32 (11753110_a_at) / Fold change /veh SNX32 (11753110_a_at) / RFU CDHR5 (11726645_a_at) / Fold change /veh CDHR5 (11726645_a_at) / RFU RCAN1 (11760418_a_at) / Fold change /veh RCAN1 (11760418_a_at) / RFU FAM167A (11723789_a_at) / Fold change /veh FAM167A (11723789_a_at) / RFU FAM26E (11764081_at) / Fold change /veh FAM26E (11764081_at) / RFU ISYNA1 (11749810_s_at) / Fold change /veh ISYNA1 (11749810_s_at) / RFU ACY1 (11761880_at) / Fold change /veh ACY1 (11761880_at) / RFU 11764098_at / Fold change /veh 11764098_at / RFU SAMD14 (11745864_x_at) / Fold change /veh SAMD14 (11745864_x_at) / RFU NPB (11741838_a_at) / Fold change /veh NPB (11741838_a_at) / RFU TMPRSS6 (11731388_a_at) / Fold change /veh TMPRSS6 (11731388_a_at) / RFU KRTAP10-2 (11738614_at) / Fold change /veh KRTAP10-2 (11738614_at) / RFU ARHGAP8 /// PRR5-ARHGAP8 (11727945_x_at) / Fold change /veh ARHGAP8 /// PRR5-ARHGAP8 (11727945_x_at) / RFU KRTAP5-7 /// NADSYN1 (11734609_at) / Fold change /veh KRTAP5-7 /// NADSYN1 (11734609_at) / RFU RASL12 (11751679_a_at) / Fold change /veh RASL12 (11751679_a_at) / RFU CDKN2B (11736163_a_at) / Fold change /veh CDKN2B (11736163_a_at) / RFU PRF1 (11729649_at) / Fold change /veh PRF1 (11729649_at) / RFU, ZNF638 /// ZNF638-IT1 / Fold change vs veh, ZNF638 /// ZNF638-IT1 / RFU, PANK3 / Fold change vs veh, PANK3 / RFU, SH3YL1 / Fold change vs veh, SH3YL1 / RFU, ZEB2 / Fold change vs veh, ZEB2 / RFU, NRIP1 / Fold change vs veh, NRIP1 / RFU, PTTG1IP / Fold change vs veh, PTTG1IP / RFU, CAPN2 / Fold change vs veh, CAPN2 / RFU, MED14 / Fold change vs veh, MED14 / RFU, SNORA58 / Fold change vs veh, SNORA58 / RFU, C1orf63 / Fold change vs veh, C1orf63 / RFU, LRRFIP1 / Fold change vs veh, LRRFIP1 / RFU, NDUFAF7 / Fold change vs veh, NDUFAF7 / RFU, SLC12A2 / Fold change vs veh, SLC12A2 / RFU, IBTK / Fold change vs veh, IBTK / RFU, ESF1 / Fold change vs veh, ESF1 / Fold change vs veh, TMEM50B / RFU, TAOK1 / Fold change vs veh, TAOK1 / RFU, ACBD3 / Fold change vs veh, ACBD3 / RFU, TMA16 / Fold change vs veh, TMA16 / RFU, RWDD3 / Fold change vs veh, RWDD3 / RFU, BCAT1 / Fold change vs veh, BCAT1 / RFU, EDEM3 / Fold change vs veh, EDEM3 / RFU, TMEM33 / Fold change vs veh, TMEM33 / RFU, WDR75 / Fold change vs veh, WDR75 / RFU, AHCTF1 / Fold change vs veh, AHCTF1 / RFU, TFRC / Fold change vs veh, TFRC / RFU, ZDHHC17 / Fold change vs veh, ZDHHC17 / RFU, NOM1 / Fold change vs veh, NOM1 / RFU, ARL8B / Fold change vs veh, ARL8B / RFU, ZBTB11 / Fold change vs veh, ZBTB11 / RFU, TAMM41 / Fold change vs veh, TAMM41 / RFU, KIAA1704 /// LOC100996395 / Fold change vs veh, KIAA1704 /// LOC100996395 / RFU, ING1 / Fold change vs veh, ING1 / RFU, TRMT61B / Fold change vs veh, TRMT61B / RFU, FUBP3 / Fold change vs veh, FUBP3 / RFU, TP53 / Fold change vs veh, TP53 / RFU, TNKS2 / Fold change vs veh, TNKS2 / RFU, ZFP14 / Fold change vs veh, ZFP14 / RFU, ACTR2 / Fold change vs veh, ACTR2 / RFU, PPP3R1 / Fold change vs veh, PPP3R1 / RFU, PIK3R1 / Fold change vs veh, PIK3R1 / RFU, HNRNPA1 / Fold change vs veh, HNRNPA1 / RFU, RNF170 / Fold change vs veh, RNF170 / RFU, ZNF28 / Fold change vs veh, ZNF28 / RFU, RNGTT / Fold change vs veh, RNGTT / RFU, OGT / Fold change vs veh, OGT / RFU, BRD1 / Fold change vs veh, BRD1 / RFU, MARS / Fold change vs veh, MARS / RFU, ZNF655 / Fold change vs veh, ZNF655 / RFU, FAHD1 / Fold change vs veh, FAHD1 / RFU, BDP1 / Fold change vs veh, BDP1 / RFU, LRRCC1 / Fold change vs veh, LRRCC1 / RFU, ARID1A / Fold change vs veh, ARID1A / RFU, ZNF146 / Fold change vs veh, ZNF146 / RFU, ZNF330 / Fold change vs veh, ZNF330 / RFU, GPN3 / Fold change vs veh, GPN3 / RFU, C9orf123 / Fold change vs veh, C9orf123 / RFU, N4BP2L2 / Fold change vs veh, N4BP2L2 / RFU, ARFIP1 / Fold change vs veh, ARFIP1 / RFU, FAM179B / Fold change vs veh, FAM179B / RFU, BCL10 / Fold change vs veh, BCL10 / RFU, UHRF1BP1L / Fold change vs veh, UHRF1BP1L / RFU, BET1 / Fold change vs veh, BET1 / RFU, CNOT2 / Fold change vs veh, CNOT2 / RFU, ZNF268 / Fold change vs veh, ZNF268 / Fold change vs veh, ZNF507 / RFU, DGCR2 / Fold change vs veh, DGCR2 / RFU, WDSUB1 / Fold change vs veh, WDSUB1 / Fold change vs veh, HSP90B1 /// MIR3652 / RFU, ADSS / Fold change vs veh, ADSS / RFU, GK / Fold change vs veh, GK / RFU, ZNF148 / Fold change vs veh, ZNF148 / RFU, TAF9 / Fold change vs veh, TAF9 / RFU, SLC1A5 / Fold change vs veh, SLC1A5 / RFU, SLMO2 / Fold change vs veh, SLMO2 / RFU, ABCC4 / Fold change vs veh, ABCC4 / RFU, LOC101060439 /// RAP1B / Fold change vs veh, LOC101060439 /// RAP1B / RFU, RFX7 / Fold change vs veh, RFX7 / RFU, GTPBP10 / Fold change vs veh, GTPBP10 / RFU, CNEP1R1 / Fold change vs veh, CNEP1R1 / RFU, BIVM-ERCC5 /// ERCC5 / Fold change vs veh, BIVM-ERCC5 /// ERCC5 / RFU, ILF3 / Fold change vs veh, ILF3 / RFU 11762660_at / Fold change /veh 11762660_at / RFU VCAN (11757783_s_at) / Fold change /veh VCAN (11757783_s_at) / RFU DDX43 (11728927_at) / Fold change /veh DDX43 (11728927_at) / RFU KRT8 (11758188_x_at) / Fold change /veh KRT8 (11758188_x_at) / RFU NKD1 (11759106_at) / Fold change /veh NKD1 (11759106_at) / RFU SRD5A1 (11742802_a_at) / Fold change /veh SRD5A1 (11742802_a_at) / RFU TPSAB1 /// TPSB2 (11721975_s_at) / Fold change /veh TPSAB1 /// TPSB2 (11721975_s_at) / RFU GSTM3 (11746129_a_at) / Fold change /veh GSTM3 (11746129_a_at) / RFU IL23R (11737362_x_at) / Fold change /veh IL23R (11737362_x_at) / RFU TMEM51 (11727254_a_at) / Fold change /veh TMEM51 (11727254_a_at) / RFU PIWIL2 (11732686_x_at) / Fold change /veh PIWIL2 (11732686_x_at) / RFU ORM1 (11744905_x_at) / Fold change /veh ORM1 (11744905_x_at) / RFU CCDC152 (11743942_at) / Fold change /veh CCDC152 (11743942_at) / RFU ECM1 (11717891_a_at) / Fold change /veh ECM1 (11717891_a_at) / RFU IL23R (11748794_a_at) / Fold change /veh IL23R (11748794_a_at) / RFU TNFAIP8L3 (11732012_x_at) / Fold change /veh TNFAIP8L3 (11732012_x_at) / RFU MBOAT4 (11741988_at) / Fold change /veh MBOAT4 (11741988_at) / RFU 11764193_at / Fold change /veh 11764193_at / RFU TMEM53 (11763286_at) / Fold change /veh TMEM53 (11763286_at) / RFU MAGEB2 (11727129_at) / Fold change /veh MAGEB2 (11727129_at) / RFU TMEM200A (11744735_a_at) / Fold change /veh TMEM200A (11744735_a_at) / RFU CCDC152 (11751479_a_at) / Fold change /veh CCDC152 (11751479_a_at) / RFU FAM211A (11726209_a_at) / Fold change /veh FAM211A (11726209_a_at) / RFU RGS16 (11746705_a_at) / Fold change /veh RGS16 (11746705_a_at) / RFU VCAN (11755009_s_at) / Fold change /veh VCAN (11755009_s_at) / RFU RHOB (11743442_s_at) / Fold change /veh RHOB (11743442_s_at) / RFU RGS16 (11720943_a_at) / Fold change /veh RGS16 (11720943_a_at) / RFU RGS16 (11720944_at) / Fold change /veh RGS16 (11720944_at) / RFU, VPS4B / Fold change vs veh, VPS4B / RFU, CREB1 / Fold change vs veh, CREB1 / RFU, DNAJC13 / Fold change vs veh, DNAJC13 / RFU, GNAQ / Fold change vs veh, GNAQ / RFU, CDK5R1 / Fold change vs veh, CDK5R1 / RFU, ZRANB3 / Fold change vs veh, ZRANB3 / RFU, CUL4A / Fold change vs veh, CUL4A / RFU, CCNY / Fold change vs veh, CCNY / RFU, UFL1 / Fold change vs veh, UFL1 / RFU, COG3 / Fold change vs veh, COG3 / RFU, DIAPH2 / Fold change vs veh, DIAPH2 / RFU, SKA2 / Fold change vs veh, SKA2 / RFU, AFF3 / Fold change vs veh, AFF3 / RFU, LMF1 / Fold change vs veh, LMF1 / RFU, IPO11 / Fold change vs veh, IPO11 / RFU, DFFB / Fold change vs veh, DFFB / RFU, FOXP1 / Fold change vs veh, FOXP1 / RFU, CARD8 / Fold change vs veh, CARD8 / RFU, STRN3 / Fold change vs veh, STRN3 / RFU, ADK / Fold change vs veh, ADK / RFU, RASSF2 / Fold change vs veh, RASSF2 / RFU, WIPF1 / Fold change vs veh, WIPF1 / RFU, LARP1B / Fold change vs veh, LARP1B / RFU, RASA1 / Fold change vs veh, RASA1 / RFU, RB1 / Fold change vs veh, RB1 / RFU, PPFIA1 / Fold change vs veh, PPFIA1 / RFU, MAT2A / Fold change vs veh, MAT2A / RFU, CCT5 / Fold change vs veh, CCT5 / RFU, WDR92 / Fold change vs veh, WDR92 / RFU, CUX1 / Fold change vs veh, CUX1 / RFU, TTC7A / Fold change vs veh, TTC7A / RFU, TMEM135 / Fold change vs veh, TMEM135 / RFU, DEPTOR / Fold change vs veh, DEPTOR / RFU, CPM / Fold change vs veh, CPM / RFU, DNAJB6 / Fold change vs veh, DNAJB6 / RFU, CACNA2D3 / Fold change vs veh, CACNA2D3 / RFU, DTX4 / Fold change vs veh, DTX4 / RFU, TFCP2 / Fold change vs veh, TFCP2 / RFU, GMCL1 /// GMCL1P1 / Fold change vs veh, GMCL1 /// GMCL1P1 / RFU, AEBP2 / Fold change vs veh, AEBP2 / RFU, SNHG1 /// SNORD22 /// SNORD25 /// SNORD26 /// SNORD27 /// SNORD28 /// SNORD29 /// SNORD31 / Fold change vs veh, SNHG1 /// SNORD22 /// SNORD25 /// SNORD26 /// SNORD27 /// SNORD28 /// SNORD29 /// SNORD31 / Fold change (Aza/veh), C12orf56 (ProbeSet 11735607_a_at) / Fold change (ACY-1035/veh), C12orf56 (ProbeSet 11735607_a_at) / Fold change (Aza/veh), FGFR1OP (ProbeSet 11751329_s_at) / Fold change (ACY-1035/veh), FGFR1OP (ProbeSet 11751329_s_at) / Fold change (Aza/veh), VPS36 (ProbeSet 11739960_a_at) / Fold change (ACY-1035/veh), VPS36 (ProbeSet 11739960_a_at) / RFU SYPL1 (11715823_x_at) / Fold change /veh SYPL1 (11715823_x_at) / RFU IGFBP7 (11715501_s_at) / Fold change /veh IGFBP7 (11715501_s_at) / RFU REEP3 (11722064_at) / Fold change /veh REEP3 (11722064_at) / RFU IGLL1 (11728026_x_at) / Fold change /veh IGLL1 (11728026_x_at): dose or concentration left out as unconfirmed
Conditions: ProbeSet 11721521_at; LIST B

Structure (SMILES): Nc1ccc(-c2cccs2)cc1NC(=O)c1ccc2c(c1)cc(C1CC1)n2CCN1CCOCC1 [ACY-1035]
- Fold change vs veh, ZDHHC17: 0.90
